In patent US20210371483A1, “Composition for Inactivating Spores by Means of Antimicrobial Peptides” (Robert Bosch Gesellschaft Fur Medizinische Fruschung mbH, priority 2016, published 2021):
Entries after “also recorded” stand apart in the source; their conditions may differ. Where no end group is shown, it is not given here.

How the values were obtained:
Type in all cases: cell-based, Clostridium difficile
C. difficile spores [1] = assay: Electron microscopy of C. difficile spores incubated with gold-labeled HBD3 peptides (FIGS. 2 and 3)
C. difficile spores [2] = assay: Spore germination experiment repeated with wash-out of the peptides after incubation; details: peptides washed out at end of incubation, medium free of peptides
Description: (§1) The effects of antimicrobial peptides on C. difficile spores were investigated by first enriching a bacterial suspension with spores so that at least 70% spores were present. The spore suspension was incubated for 60 minutes with various defensins (HBD1, HBD2, HBD3) and the cathelicidin LL37 (recombinant defensins: Peptanova Sandhausen, HBD1 order No. 4337; HBD2; 4338, HBD3 4382/recombinant LL37: Innovagen Lund Sweden, order No. SP-LL-37-1). Thereafter, aliquots of the samples were plated out on Columbia blood agar and incubated anaerobically for at least 4 days. The germinated spores in an untreated control and the preparations containing antimicrobial peptides were counted.
In order to able to establish with certainty whether either germinating bacteria are rapidly killed by the presence of antimicrobial peptides in the medium or the spores are in fact prevented from germinating, the experiment was repeated, but at the end of the incubation time, the peptides were washed out and the medium was free of peptides.

C. difficile spores [3] = assay: Incubation of C. difficile spore suspension with antimicrobial peptides, plating and counting of germinated spores; details: spore suspension (at least 70% spores) incubated 60 minutes with peptide; plated on Columbia blood agar, anaerobic at least 4 days
Description: as §1

C. difficile spores [4] = assay: Spore germination after incubation, wash-out and heat killing of residual vegetative cells (FIG. 1); details: for decrease in germinating spores: incubation, wash-out, heat 61° C., 30 min, as a function of peptide concentration
Description: as §1
In further experiments, the inventers wanted to make the unambiguous assignment that resultant bacterial colonies can be attributed with certainty to the germinated spores and not to the steady growth of residual vegetative cells. To this end, incubation and wash-out were followed by killing the residual vegetative cells using heat (61° C., 30 min). This heat treatment kills only the vegetative cells, but not the spores.

Substance | structural destruction of the spores (C. difficile spores [1]) | penetration into the spores (C. difficile spores [1]; gold-labeled HBD3 peptides) | inhibitory effect on spore germination despite wash-out (C. difficile spores [2]) | germinated spores in comparison with the controls (C. difficile spores [3]) | number of germinating spores (C. difficile spores [4]; 2.5 μg/mL peptide, after wash-out and heat treatment) | efficacy compared with the other effective peptide (C. difficile spores [4]; in lower concentrations, after wash-out and heat treatment) | decrease in germinating spores (C. difficile spores [4]) | difference between the effect of LL37 and HBD3 (C. difficile spores [4]; at larger concentrations (10 μg/mL)) | difference between the effect of LL37 and HBD3 (C. difficile spores [4]; at low concentrations)
human beta-defensin-3 (GIINTLQKYYCRVRGGRCAVLSCLPKEEQIGKCSTRGRKCCRRKK; ends and bridges not checked; cysteine pairing not given here; UniProt P81534 23-67, looked up) [HBD3, Human beta-defensin 3, protein composed of 45 amino acids, net charge +11; recombinant, Peptanova order No. 4382] | destroyed structurally; also recorded: destroys parts of the spore structure | able to penetrate into the spores; also recorded: penetrates into the exosporium | maintained | significantly fewer germinated spores | greatly lowering the number of germinating spores | somewhat higher efficacy | concentration-dependent decrease in germinating spores |  | 
cathelicidin LL-37 [LL37] |  |  | maintained | significantly fewer germinated spores |  |  | concentration-dependent decrease in germinating spores | hardly noticeable | distinct difference
